Measurements from patent publication US20260158050A1, “USE OF EIDD-1931 OR DERIVATIVE THEREOF IN TREATMENT OF ENTEROVIRUS INFECTION” (ACADEMY OF MILITARY MEDICAL SCIENCES, priority 2022, published 2026).

What was measured:
EV-A71 [1] = experiment: infectious virus particle formation in supernatant (TCID50 detection); type: cell-based; conditions: supernatant of RD cells, TCID50 (FIG. 3 A and C)
EV-A71 [2] = experiment: protection of 1-day-old ICR suckling mice with lethal EV-A71 infection; type: in vivo; conditions: for protective effect on ICR suckling mice inoculated with a lethal dose of EV-A71: 200, 66.6, 22.2, 7.41 mg/kg intraperitoneally once per day for 7 days
Procedure: 10 litters of 1-day-old ICR offspring female mice were randomly divided into 10 groups, namely, virus control group (2 groups), EIDD-1931 administration group (4 groups), and EIDD-2801 administration group (4 groups). The dosages of EIDD-1931 and EIDD-2801 were 200 mg/kg, 66.6 mg/kg, 22.2 mg/kg, and 7.41 mg/kg, respectively. Each mouse was challenged with 10^6 PFU intraperitoneally, and administrated the drug intraperitoneally 4 hours later. The mice of virus control group were administrated the drug solvent. And then, the drug was administered once per day for 7 consecutive days. The mice were weighed, and the survival and weight changes in the mice were recorded every day.
Log-Rank was used to calculate the statistical significance of the survival curve. p<0.05 indicated statistical significance.

Huh7 cells = experiment: cytotoxicity test on Huh7 cells; type: cell-based, Human; conditions: 3 days
Procedure: (§1) Human liver tumor cells (Huh7 cells) used in the experiment were purchased from Chinese National Infrastructure of Cell Line Resource. Human […] cells (RD cells) and African green monkey kidney cells (Vero cells) were purchased from ATCC (Cat. No.: CCL-136 and CCL-81, respectively). The above cells were cultured in a cell culture incubator at 37° C. and 5% CO2. The complete culture medium used for cell growth was DMEM high-glucose culture medium (purchased from Gibco, Cat. […] No.: 16000044) and penicillin-streptomycin (purchased from Gibco, Cat. No.: 2321152). The maintenance culture medium used for cell culture was DMEM high-glucose culture medium supplemented with 2% FBS and penicillin-streptomycin. H strain of EV-A71 was purchased from ATCC (Cat. No.: VR-1432). […] The microplate reader, model Spectra Max M5, was purchased from Molecular Devices. […] Finally, the luminescence value of each well was measured using the microplate reader. The inhibition rate of the test compounds at each dilution was calculated as follows: [formula] […] The half-cytotoxic concentrations (CC50) of the test compounds were calculated using the same method, and the select index (SI) was calculated based on EC50 and CC50: SI=CC50/EC50.

CV-A6 TW-2007-00141 = experiment: CPE protection, CV-A6 TW-2007-00141 strain; type: cell-based; conditions: CV-A6 TW-2007-00141, RD cells
Vero cells = experiment: cytotoxicity test on Vero cells; type: cell-based, African green monkey; conditions: 3 days
Procedure: as §1

RD cells = experiment: cytotoxicity test on RD cells; type: cell-based, Human; conditions: 3 days
Procedure: as §1

EV-A71 AH08/06 = experiment: CPE protection, EV-A71 AH08/06 strain; type: cell-based; conditions: EV-A71 AH08/06, RD cells
EV-A71 H strain = experiment: protection against cytopathic effect (CPE) caused by EV-A71, Cell-Titer Glo; type: cell-based; conditions: for EC50: EV-A71 H strain, 3 days; for inhibition of the cytopathic effect caused by the virus: multiple cell lines infected with EV-A71 (FIG. 2)
Procedure: Human liver tumor cells (Huh7 cells) used in the experiment were purchased from Chinese National Infrastructure of Cell Line Resource. Human […] cells (RD cells) and African green monkey kidney cells (Vero cells) were purchased from ATCC (Cat. No.: CCL-136 and CCL-81, respectively). The above cells were cultured in a cell culture incubator at 37° C. and 5% CO2. The complete culture medium used for cell growth was DMEM high-glucose culture medium (purchased from Gibco, Cat. […] No.: 16000044) and penicillin-streptomycin (purchased from Gibco, Cat. No.: 2321152). The maintenance culture medium used for cell culture was DMEM high-glucose culture medium supplemented with 2% FBS and penicillin-streptomycin. H strain of EV-A71 was purchased from ATCC (Cat. No.: VR-1432). Compounds EIDD-1931 and EIDD-2801 were purchased from Shanghai Topscience Biochemical Technology Co., Ltd. (Cat Nos: […] and […], respectively), and their structures were shown in FIG. 1. Cell-Titer Glo® Luminescent Cell Viability Assay Solution was purchased from Promega (Cat. No.: G7572). The microplate reader, model Spectra Max M5, was purchased from Molecular Devices. Huh7 cells, RD cells, and Vero cells were seeded into a 96-well plate with a white wall and a transparent bottom at a density of about 1.0×10^4 per well and cultured at 37° C. and 5% CO2 for 24 hours. Then, the EV-A71 virus was diluted with cell maintenance solution and added to the 96-well plate to reach a final concentration of 100TCID50. […] After 3 days, the supernatant was discarded, and the diluted Cell-Titer Glo® Luminescent Cell Viability Assay Solution was added. The cells were shaken and lysed for 5 minutes in the dark, and then allowed to stand for 3 minutes. Finally, the luminescence value of each well was measured using the microplate reader. The formula for calculating the inhibition rate of the test compounds against virus was: [formula] Origin9.0 software was used to fit the inhibition rate-concentration S-shaped curve and calculate the half-maximal effective concentrations (EC50) of the test compounds. The half-cytotoxic concentrations (CC50) of the test compounds were calculated using the same method, and the select index (SI) was calculated based on EC50 and CC50: SI=CC50/EC50.

CV-B3 Nancy = experiment: CPE protection, CV-B3 Nancy strain; type: cell-based; conditions: for EC50: CV-B3 Nancy, Vero cells
EV-A71 RNA = experiment: inhibition of EV-A71 viral RNA replication (qRT-PCR) in RD cells; type: cell-based; conditions: 0.1 MOI, 30 hours (FIG. 3 B and D)

Compound	inhibition of production of infectious viral particles (EV-A71 [1])	time within which the mice died (EV-A71 [2]; 7.41 mg/kg intraperitoneally)	protective effect on ICR suckling mice inoculated with a lethal dose of EV-A71 (EV-A71 [2])	CC50 (Huh7 cells)	EC50 (CV-A6 TW-2007-00141)	CC50 (Vero cells)	CC50 (RD cells)	EC50 (EV-A71 AH08/06)	EC50 (EV-A71 H strain; Huh7 cells)	EC50 (EV-A71 H strain; RD cells)	EC50 (EV-A71 H strain; Vero cells)	SI (CC50/EC50) (EV-A71 H strain; Huh7 cells)	SI (CC50/EC50) (EV-A71 H strain; RD cells)	SI (CC50/EC50) (EV-A71 H strain; Vero cells)	inhibition of the cytopathic effect caused by the virus (EV-A71 H strain)	EC50 (CV-B3 Nancy)	inhibition of replication of EV-A71 RNA (EV-A71 RNA)	other results
O=c1nc(NO)ccn1[C@@H]1O[C@H](CO)[C@@H](O)[C@H]1O [EIDD-1931]	inhibited	≤ 12 days	dose-dependent protective effect	34.09 ± 0.06 µM	17.7 ± 0.38 µM	14.1 ± 0.43 µM	80.47 ± 0.02 µM	2.79 ± 0.89 µM	4.43 ± 0.33 µM	5.13 ± 0.56 µM	7.04 ± 0.38 µM	7.69	15.69	2.0	dose-dependently inhibit	3.65 ± 0.82 µM	dose-dependently inhibited	survival rate (EV-A71 [2]; 22.2 mg/kg intraperitoneally): 60%; protection from the lethal dose of EV-71 virus (EV-A71 [2]; 66.6 mg/kg intraperitoneally): completely protect; protection from the lethal dose of EV-71 virus (EV-A71 [2]; 200 mg/kg intraperitoneally): completely protect; weight gain of surviving mice (EV-A71 [2]; 200, 66.6 and 22.2 mg/kg): good weight gain
CC(C)C(=O)OC[C@H]1O[C@@H](n2cc/c(=N\O)[nH]c2=O)[C@H](O)[C@@H]1O [EIDD-2801]	inhibited	≤ 13 days	dose-dependent protective effect	> 100 µM	> 100 µM	> 100 µM	> 100 µM	30.3 ± 0.55 µM	35.6 ± 0.47 µM	70.1 ± 4.4 µM	88.5 ± 3.18 µM	> 2.81	> 1.43	> 1.13	dose-dependently inhibit	87.2 ± 10.8 µM	dose-dependently inhibited	time within which the mice died (EV-A71 [2]; 22.2 mg/kg intraperitoneally): ≤ 13 days; survival rate (EV-A71 [2]; 66.6 mg/kg intraperitoneally): 67%; survival rate (EV-A71 [2]; 200 mg/kg intraperitoneally): 100%; inhibitory activity against CV-B3 (CV-B3 Nancy): low inhibitory activity
